Our source for the melting point values is US7875600B2, “Pyrimidine compounds as purine receptor antagonist” (Vernalis (R&D) Limited, priority 2004, dated 2011).

Structures are written as SMILES. A value given as a limit tells only on which side of the number the result lay.

`Nc1nc(C(=O)NC2CCc3ccccc32)cc(-c2ccco2)n1` (stereo in doubt) [Example 78, (R)-2-Amino-6-(2-furyl)-N-(1-indanyl)pyrimidine-4-carboxamide] registered a melting point of 126.7 to 127.2 °C.
Compound `Nc1nc(C(=O)NC2CCc3ccccc32)cc(-c2ccco2)n1` (stereo in doubt) [Example 79, (S)-2-Amino-6-(2-furyl)-N-(1-indanyl)pyrimidine-4-carboxamide] showed a melting point of 111.8 to 112.5 °C.
Compound `COc1cccc(CNC(=O)c2cc(-c3ccco3)nc(N)n2)c1` [Example 3, 2-Amino-6-(2-furyl)-N-(3-methoxybenzyl)pyrimidine-4-carboxamide] yielded a melting point of 229.2 to 234.5 °C.
The value for `Nc1nc(C(=O)N2CCCCC2)cc(-c2ccco2)n1` [Example 5, 1-(2-Amino-6-(2-furyl)pyrimidin-4-ylcarbonyl)piperidine] was 139.5 to 143 °C; that for `NC(=O)c1cc(-c2ccco2)nc(N)n1` [Example 8, 2-Amino-6-(2-furyl)pyrimidine-4-carboxamide] was 218 to 219.8 °C; that for `CN(C)c1ccc(CNC(=O)c2cc(-c3ccco3)nc(N)n2)cc1` [Example 9, 2-Amino-6-(2-furyl)-N-(4-dimethylaminobenzyl)pyrimidine-4-carboxamide] was 202.4 to 202.9 °C.
`Nc1nc(C(=O)NCc2cccc(C(F)(F)F)c2)cc(-c2ccco2)n1` [Example 16, 2-Amino-N-(3-trifluoromethylbenzyl)-6-(2-furyl)pyrimidine-4-carboxamide]: the melting point fell in the range of 170.6 to 170.7 °C.
The figure for `Nc1nc(C(=O)NCc2nc3ccccc3[nH]2)cc(-c2ccco2)n1` [Example 17, 2-Amino-N-(1H-benzimidazol-2-ylmethyl)-6-(2-furyl)pyrimidine-4-carboxamide] is 290.9 to 291.3 °C; for `Nc1nc(C(=O)NCc2ncccc2CN2CCOCC2)cc(-c2ccco2)n1` [Example 22, 2-Amino-6-(2-furyl)-N-(3-(4-morpholinylmethyl)pyridin-2-ylmethyl)pyrimidine-4-carboxamide] it is 195.5 to 197.5 °C.
The figure for `COc1nc(C)ccc1CNC(=O)c1cc(-c2ccco2)nc(N)n1` [Example 29, 2-Amino-6-(2-furyl)-N-(2-methoxy-6-methylpyridin-3-ylmethyl)pyrimidine-4-carboxamide] is 178 to 178.1 °C; for `Cn1ccnc1CNC(=O)c1cc(-c2ccco2)nc(N)n1` [Example 34, 2-Amino-6-(2-furyl)-N-(1-methyl-1H-imidazol-2-ylmethyl)pyrimidine-4-carboxamide] it is 209.5 to 210.3 °C.
The figure for `Nc1nc(C(=O)NCc2ccc3[nH]ccc3c2)cc(-c2ccco2)n1` [Example 35, 2-Amino-6-(2-furyl)-N-(5-indolylmethyl)pyrimidine-4-carboxamide] is 170.1 to 170.5 °C; for `Cc1[nH]c2ccc(CNC(=O)c3cc(-c4ccco4)nc(N)n3)cc2c1C` [Example 36, 2-Amino-N-(2,3-dimethylindol-5-ylmethyl)-6-(2-furyl)pyrimidine-4-carboxamide] it is 155.9 to 156 °C; for `Cc1cc(CNC(=O)c2cc(-c3ccco3)nc(N)n2)ccc1[N+](=O)[O-]` [Example 37, 2-Amino-6-(2-furyl)-N-(3-methyl-4-nitrobenzyl)pyrimidine-4-carboxamide] it is 191.8 to 192.2 °C.
As for `Cc1cc2cc(CNC(=O)c3cc(-c4ccco4)nc(N)n3)ccc2[nH]1` [Example 40, 2-Amino-6-(2-furyl)-N-(2-methylindol-5-ylmethyl)pyrimidine-4-carboxamide], the melting point lay in the range of 105.6 to 105.7 °C.
Turning to `CC(C)NC(=O)OCc1cccc(CNC(=O)c2cc(-c3ccco3)nc(N)n2)n1` [Example 41, 6-(2-Amino-6-(2-furyl)pyrimidine-4-carboxamidomethyl)pyridin-2-ylmethyl isopropylcarbamate], the melting point lay within 155.2 to 155.7 °C.
The figure for `COCc1ccc(C)c(CNC(=O)c2cc(-c3ccco3)nc(N)n2)n1` [Example 46, 2-Amino-6-(2-furyl)-N-(6-methoxymethyl-3-methylpyridin-2-ylmethyl)pyrimidine-4-carboxamide] is 148 to 148.4 °C; for `Nc1nc(C(=O)NCc2ccc3cc[nH]c3c2)cc(-c2ccco2)n1` [Example 48, 2-Amino-6-(2-furyl)-N-(6-indolylmethyl)pyrimidine-4-carboxamide] it is 193.8 to 194 °C.
The value for `Nc1nc(C(=O)NCc2cccc3cccnc23)cc(-c2ccco2)n1` [Example 49, 2-Amino-6-(2-furyl)-N-(quinolin-8-ylmethyl)pyrimidine-4-carboxamide] was 230.7 to 230.9 °C.
The value for `Nc1nc(C(=O)NCc2ccc3nsnc3c2)cc(-c2ccco2)n1` [Example 53, 2-Amino-N-([2,1,3]benzothiadiazol-5-ylmethyl)-6-(2-furyl)pyrimidine-4-carboxamide] was 171.2 to 172.1 °C; that for `Nc1nc(C(=O)NCc2ccc3ccccc3n2)cc(-c2ccco2)n1` [Example 57, 2-Amino-6-(2-furyl)-N-(quinolin-2-ylmethyl)pyrimidine-4-carboxamide] was 180.9 to 181.4 °C.
As for `Nc1nc(C(=O)NCc2nc3ccccc3s2)cc(-c2ccco2)n1` [Example 58, 2-Amino-N-(benzothiazol-2-ylmethyl)-6-(2-furyl)pyrimidine-4-carboxamide], the melting point was in the range of 219.9 to 222.3 °C.
Take `Cc1ccc(COCC2CC2)nc1CNC(=O)c1cc(-c2ccco2)nc(N)n1` [Example 59, 2-Amino-N-(6-cyclopropylmethoxymethyl-3-methylpyridin-2-ylmethyl)-6-(2-furyl)pyrimidine-4-carboxamide]: the melting point fell in the range of 154.5 to 156.9 °C.
`C[C@H](NC(=O)c1cc(-c2ccco2)nc(N)n1)c1ccccc1` [Example 60, (S)-2-Amino-6-(2-furyl)-N-(1-phenylethyl)pyrimidine-4-carboxamide] yielded a melting point of 158.7 to 158.9 °C.
The value for `C[C@@H](NC(=O)c1cc(-c2ccco2)nc(N)n1)c1ccccc1` [Example 63, (R)-2-Amino-6-(2-furyl)-N-(1-phenylethyl)pyrimidine-4-carboxamide] was 158.8 to 159.1 °C; that for `Nc1nc(C(=O)N2Cc3ccccc3C2)cc(-c2ccco2)n1` [Example 66, 2-(2-Amino-6-(2-furyl)pyrimidin-4-ylcarbonyl)-2,3-dihydro-1H-isoindole] was 226.2 to 226.3 °C; that for `Nc1nc(C(=O)N2CCc3ccccc3C2)cc(-c2ccco2)n1` [Example 71, 2-(2-Amino-6-(2-furyl)pyrimidin-4-ylcarbonyl)-1,2,3,4-tetrahydroisoquinoline] was 193.3 to 193.6 °C.
In turn, `Nc1nc(C(=O)N2CCCc3ccccc32)cc(-c2ccco2)n1` [Example 72, 1-(2-Amino-6-(2-furyl)pyrimidin-4-ylcarbonyl)-1,2,3,4-tetrahydroquinoline] had a melting point of 203.8 to 204.5 °C.
The value for `Nc1nc(C(=O)N2CCc3ccccc32)cc(-c2ccco2)n1` [Example 75, 1-(2-Amino-6-(2-furyl)pyrimidin-4-ylcarbonyl)-2,3-dihydroindole] was 251.9 to 252.3 °C.
`Nc1nc(C(=O)NCCCc2ccccc2)cc(-c2ccco2)n1` [Example 83, 2-Amino-6-(2-furyl)-N-(3-phenylpropyl)pyrimidine-4-carboxamide] gave a melting point of 131 to 131.1 °C.
The value for `CCCNC(=O)OCc1cccc(CNC(=O)c2cc(-c3ccco3)nc(N)n2)n1` [Example 85, 6-(2-Amino-6-(2-furyl)pyrimidine-4-carboxamidomethyl)pyridin-2-ylmethyl n-propylcarbamate] was 151.6 to 155.7 °C; that for `Cc1cnc(CNC(=O)c2cc(-c3ccco3)nc(N)n2)cn1` [Example 88, 2-Amino-6-(2-furyl)-N-(5-methylpyrazin-2-ylmethyl)pyrimidine-4-carboxamide] was 191.9 to 192 °C.
The figure for `Nc1nc(C(=O)NC2Cc3ccccc3C2)cc(-c2ccco2)n1` [Example 90, 2-Amino-6-(2-furyl)-N-(2-indanyl)pyrimidine-4-carboxamide] is 220 to 221.3 °C.
The figure for `Nc1nc(C(=O)NCc2ncc[nH]2)cc(-c2ccco2)n1` [Example 91, 2-Amino-6-(2-furyl)-N-(1H-imidazol-2-ylmethyl)pyrimidine-4-carboxamide] is > 200 °C (dec.); for `CCCn1ccnc1CNC(=O)c1cc(-c2ccco2)nc(N)n1` [Example 92, 2-Amino-6-(2-furyl)-N-(1-n-propyl-1H-imidazol-2-ylmethyl)pyrimidine-4-carboxamide] it is 270.7 to 271.5 °C; for `Nc1nc(C(=O)NCc2cccc(Br)n2)cc(-c2ccco2)n1` [Example 94, 2-Amino-N-(6-bromopyridin-2-ylmethyl)-6-(2-furyl)pyrimidine-4-carboxamide] it is 178.1 to 179.3 °C.
In the case of `Nc1nc(C(=O)NCCCn2ccnc2)cc(-c2ccco2)n1` [Example 96, 2-Amino-6-(2-furyl)-N-(3-(1H-imidazol-1-yl)propyl)pyrimidine-4-carboxamide], the melting point was in the range of 248.2 to 249 °C.
`CCn1ccnc1CNC(=O)c1cc(-c2ccco2)nc(N)n1` [Example 98, 2-Amino-N-(1-ethyl-1H-imidazol-2-ylmethyl)-6-(2-furyl)pyrimidine-4-carboxamide] registered a melting point of 263.1 to 264.9 °C.
The value for `Cc1ccc(CNC(=O)c2cc(-c3ccco3)nc(N)n2)c(N(C)C)n1` [Example 102, 2-Amino-N-(2-dimethylamino-6-methylpyridin-3-ylmethyl)-6-(2-furyl)pyrimidine-4-carboxamide] was 203 to 203.1 °C; that for `CCCc1cccc(CNC(=O)c2cc(-c3nccs3)nc(N)n2)n1` [Example 109, 2-Amino-N-(6-n-propylpyridin-2-ylmethyl)-6-(thiazol-2-yl)pyrimidine-4-carboxamide] was 144.1 to 144.3 °C; that for `COCc1cccc(CNC(=O)c2nc(N)nc(-c3ccc(C)o3)c2Cl)n1` [Example 116, 2-Amino-5-chloro-N-(6-methoxymethylpyridin-2-ylmethyl)-6-(5-methyl-2-furyl)pyrimidine-4-carboxamide] was 168.6 to 168.9 °C.
